Consider 5 molecules from patent US20250090505A1, “Methods for Preventing Ectopic Brain Mineralization in Alzheimer's Disease and Dementias” (Tzerma LLC, priority 2022, published 2025).

One data set concerns HCN-2 cells. Briefly: Inhibition of biomineralization (hydroxyapatite production) by HCN-2 cells, Alizarin Red staining. The class given is cell-based, human. The note with it: for effect on alkaline phosphatase and alpha-glycerophosphate triggered biomineralization / hydroxyapatite production by HCN-2 cells, each compound alone: FIGS. 5A-5B.
For data set [1] the following is noted: references 30-31; cited from earlier work.
Data set [2] has as its system in vitro biomineralization reaction. Briefly: Titration of the elements that trigger the in vitro biomineralization reaction. The class given is cell-based. The note with it: titration assays, calcium, αGP and TNAP concomitantly present. As for the experimental part:
It is determined herein that the biomineralization reaction is dose-dependent on calcium, alpha-glycerophosphate and alkaline phosphatase. It is known that the physiological concentration of alkaline phosphatase in the brain is 1-2 international units per liter (IU/L), which is substantially lower than alkaline phosphatase in peripheral blood serum (44 to 147 IU/L)) (35, 36). […] The minimum dose of calcium, αGP, and TNAP that promptly triggers in vitro biomineralization reaction is 0.45 mM, 1.0 mM, and 100 IU/L, respectively (22).
To measure the physiological glycerophosphate, a method to quantify this organic compound in peripheral blood serum was invented The method of quantifying alpha-glycerophosphate is disclosed in international publication WO 2021/076851, the entirety of which is hereby incorporated by reference. […] The physiological concentration of alpha-glycerophosphate varied substantially amid adult individuals with a mean value of 2.90 mM and standard deviation of 1.98 (median=2.42 mM, max=9.60 mM, and min=0.15 mM). The wide range of alpha-glycerophosphate in blood is likely attributed to personal diet, e.g., a fatty diet and gut microbiome, and physical activity because alpha-glycerophosphate is a metabolite derived from fat to energize mitochondria (37). Overall, 83% of tested samples contained alpha-glycerophosphate greater than 1.0 mM, which is sufficient to trigger biomineralization when calcium and alkaline phosphatase are concomitantly present.

`Cl.c1ccc([C@H]2CN3CCSC3=N2)cc1` [Levamisole, (−)-(s)-2,3,5,6-tetrahydro-6-phenylimidazo(2,1-b)thiazole mono hydrochloride]: the “effect on alkaline phosphatase and alpha-glycerophosphate triggered biomineralization” value with HCN-2 cells is listed as “inhibitory effects”. In the data set with HCN-2 cells (HCN-2 cells, alpha-glycerophosphate 2 mM, recombinant human TNAP 1,000 U/L), the “concentration of Levamisole at which biomineralization is inhibited” value is reported as 1 mM. Further, in the data set with HCN-2 cells (in vitro), the “hydroxyapatite production by HCN-2 cells, each compound alone” value is “entirely cease”. In addition, the “crossing of the blood-brain barrier” value in data set [1] is listed as “cross the blood-brain barrier”.
Consider `[Ca+2]` [calcium], for which, in data set [2], the “minimum dose that promptly triggers in vitro biomineralization reaction” value (shortened to “minimum dose that promptly triggers”) is listed as 0.45 mM.
Turning to `O=C(O)P(=O)(O)O` [Foscarnet, phosphonoformic acid], in the data set with HCN-2 cells, the “effect on alkaline phosphatase and alpha-glycerophosphate triggered biomineralization” value is “inhibitory effects”. In addition, in the data set with HCN-2 cells (in vitro), the “hydroxyapatite production by HCN-2 cells, each compound alone” value is listed as “entirely cease”. Moreover, in the data set on HCN-2 cells (in vitro, HCN-2 cells, MEMα/10% FBS with αGP and TNAP, 7 days, Alizarin Red (FIGS. 5A-5B)), the “concentration of Foscarnet that can competitively inhibit biomineralization” value was “at least 0.02 mM”. Also, the “crossing of the blood-brain barrier” value in data set [1] is listed as “cross the blood-brain barrier”.
Regarding `O=P(O)(O)OCC(O)CO` (stereo not drawn) [αGP, alpha-glycerophosphate], the figures for the “minimum dose that promptly triggers” value in data set [2] and in data set [2] (listed as alpha-glycerophosphate) were 1.0 mM and at least 1.0 mM, respectively.

B1: TNAP: human tissue nonspecific alkaline phosphatase, element that triggers biomineralization (protein, UniProt P05186 18-501, looked up)
Alkaline phosphatase, …: LVPEKEKDPKYWRDQAQETLKYALELQKLNTNVAKNVIMFLGDGMGVSTVTAARILKGQLHHNPGEETRLEMDKFPFVALSKTYNTNAQVPDSAGTATAYLCGVKANEGTVGVSAATERSRCNTTQGNEVTSILRWAKDAGKSVGIVTTTRVNHATPSAAYAHSADRDWYSDNEMPPEALSQGCKDIAYQLMHNIRDIDVIMGGGRKYMYPKNKTDVEYESDEKARGTRLDGLDLVDTWKSFKPRYKHSHFIWNRTELLTLDPHNVDYLLGLFEPGDMQYELNRNNVTDPSLSEMVVVAIQILRKNPKGFFLLVEGGRIDHGHHEGKAKQALHEAVEMDRAIGQAGSLTSSEDTLTVVTADHSHVFTFGGYTPRGNSIFGLAPMLSDTDKKPFTAILYGNGPGYKVVGGERENVSMVDYAHNNYQAQSAVPLRHETHGGEDVAVFSKGPMAHLLHGVHEQNYVPHVMAYAACIGANLGHCAPAS
Regarding B1, the “minimum dose that promptly triggers” value in data set [2] is listed as 100 IU/L.
